Reference: paper PMC6792352, “Limited Chemical Structural Diversity Found to Modulate Thyroid Hormone Receptor in the Tox21 Chemical Library” (Environmental Health Perspectives, 2019)
Counter-ions that a name gives are not always drawn.

Assay: in vitro
Conditions: rat, gh3-tre-luc cells, AC50 (uM) modified / 1000

For `CC1=CC[C@H](C(C)C)C=C1` [(R)-alpha-Phellandrene], which CC50 at 24 h is on record?
The CC50 at 24 h was greater than 90 µM.

For `C=CCN(CC=C)CC=C` [Triallylamine], which CC50 at 24 h is on record?
The CC50 at 24 h was greater than 90 µM.

With `CCCCCCCC(=O)OCCCCCC` [Hexyl octanoate] as the compound, how does the CC50 at 24 h read?
The CC50 at 24 h was greater than 90 µM.

With `O=C1C=C2C=C[C@@H]3C[C@@]2(O1)[C@H]1CCCCN31` [Securinine] as the compound, how does the CC50 at 24 h read?
The CC50 at 24 h was 15.3 µM.

For `O=S1(=O)CCCC1` [Sulfolane], which CC50 at 24 h is on record?
The CC50 at 24 h was greater than 90 µM.

Which CC50 at 24 h does the source give for `CCCN(CCC)S(=O)(=O)c1ccc(C(=O)O)cc1` [Probenecid] here?
Its CC50 at 24 h is greater than 90 µM.

For `CCC(=O)Oc1ccc(/C(CC)=C(\CC)c2ccc(OC(=O)CC)cc2)cc1` [Diethylstilbestrol dipropionate], which CC50 at 24 h is on record?
The CC50 at 24 h was greater than 90 µM.

With `Cn1c(=O)c2c(ncn2CCO)n(C)c1=O` [Etofylline] as the compound, how does the CC50 at 24 h read?
Its CC50 at 24 h is greater than 50 µM.

Which CC50 at 24 h does the source give for `CC(CNC1CCCCC1)OC(=O)c1ccccc1` (stereo not drawn) [Hexylcaine hydrochloride] here?
Its CC50 at 24 h is greater than 20 µM.

Which CC50 at 24 h does the source give for `C=CCCCCCCCCC=O` [Undec-10-enal] here?
Its CC50 at 24 h is greater than 90 µM.

Which CC50 at 24 h does the source give for `Cc1ccc(S)cc1` [4-Thiocresol] here?
The CC50 at 24 h was greater than 90 µM.

Which CC50 at 24 h does the source give for `CC(=O)CN(CC(C)=O)N=O` [N-Nitrosobis(2-oxopropyl)amine] here?
Its CC50 at 24 h is greater than 90 µM.

For `CC(C)(c1ccccc1)c1cc(-n2nc3ccccc3n2)c(O)c(C(C)(C)c2ccccc2)c1` [2-(2H-Benzotriazol-2-yl)-4,6-bis(1-methyl-1-phenylethyl)phenol], which CC50 at 24 h is on record?
Its CC50 at 24 h is greater than 50 µM.

With `NNC(=S)NN` [Thiocarbazide] as the compound, how does the CC50 at 24 h read?
Its CC50 at 24 h is greater than 90 µM.

For `CCOC(=O)CCCCCCCCC(=O)OCC` [Diethyl decanedioate], which CC50 at 24 h is on record?
Its CC50 at 24 h is greater than 90 µM.

For `CC[C@@H](N)CO` [(2R)-2-Aminobutan-1-ol], which CC50 at 24 h is on record?
Its CC50 at 24 h is greater than 100 µM.

With `FC(F)(F)C(F)(F)C(F)(F)C(F)(F)C(F)(F)C(F)(F)F` [Perflexane] as the compound, how does the CC50 at 24 h read?
Its CC50 at 24 h is greater than 50 µM.

For `CC(CN1c2ccccc2Sc2cccnc21)N(C)C` (stereo not drawn) [Isothipendyl hydrochloride], which CC50 at 24 h is on record?
The CC50 at 24 h was 28 µM.

For `O=C1NC(=O)[C@@H]2CC=CC[C@H]12` [1,2,3,6-Tetrahydrophthalimide], which CC50 at 24 h is on record?
The CC50 at 24 h was greater than 90 µM.

Which CC50 at 24 h does the source give for `CC(C)(C#N)N=NC(C)(C)C#N` [Azobisisobutyronitrile] here?
Its CC50 at 24 h is greater than 90 µM.

For `CC1(C)C(C=C(Cl)Cl)C1C(=O)OCc1cccc(Oc2ccccc2)c1` (stereo not drawn) [Permethrin], which CC50 at 24 h is on record?
The CC50 at 24 h was greater than 90 µM.

With `CC1(C)SC(C)(C)SC(C)(C)S1` [Trithioacetone] as the compound, how does the CC50 at 24 h read?
Its CC50 at 24 h is greater than 90 µM.

With `COc1ccc(N=Nc2cc(C)c(N=Nc3ccc(S(=O)(=O)O)cc3)cc2OC)cc1` [Acid Orange 156] as the compound, how does the CC50 at 24 h read?
The CC50 at 24 h was 64.4 µM.

For `CCC(=O)O[C@]1(C(=O)CCl)[C@@H](C)C[C@H]2[C@@H]3C[C@H](F)C4=CC(=O)C=C[C@]4(C)[C@@]3(F)[C@@H](O)C[C@@]21C` [Halobetasol propionate], which CC50 at 24 h is on record?
Its CC50 at 24 h is greater than 50 µM.

With `CC(C(=O)O)c1cccc(C(=O)c2ccccc2)c1` (stereo not drawn) [Ketoprofen] as the compound, how does the CC50 at 24 h read?
Its CC50 at 24 h is greater than 90 µM.

With `CO[C@]12C[C@@H](COC(=O)c3cncc(Br)c3)CN(C)[C@@H]1Cc1cn(C)c3cccc2c13` [Nicergoline] as the compound, how does the CC50 at 24 h read?
The CC50 at 24 h was 16.4 µM.

For `CCCCCCCCCCCCCOC(=O)CCSCCC(=O)OCCCCCCCCCCCCC` [Di(tridecyl) thiodipropionate], which CC50 at 24 h is on record?
Its CC50 at 24 h is greater than 20 µM.

With `CCc1ccc(C(c2ccc(CC)cc2)C(Cl)Cl)cc1` [p,p'-Ethyl-DDD] as the compound, how does the CC50 at 24 h read?
The CC50 at 24 h was 82.4 µM.

With `O=C(O)c1cc(-c2ccc(F)cc2F)ccc1O` [Diflunisal] as the compound, how does the CC50 at 24 h read?
Its CC50 at 24 h is greater than 20 µM.

Which CC50 at 24 h does the source give for `CC(=O)Oc1c(C)c(C)c2c(c1C)CC[C@@](C)(CCC[C@H](C)CCC[C@H](C)CCCC(C)C)O2` (racemic) [dl-alpha-Tocopheryl acetate] here?
The CC50 at 24 h was greater than 90 µM.

Which CC50 at 24 h does the source give for `O=C(O)c1ccccc1C(=O)OCc1ccccc1` [Monobenzyl phthalate] here?
Its CC50 at 24 h is greater than 90 µM.

For `C=CCN1C[C@H](C)N([C@H](c2ccc(C(=O)N(CC)CC)cc2)c2cccc(OC)c2)C[C@H]1C` [SNC 80], which CC50 at 24 h is on record?
Its CC50 at 24 h is 28.8 µM.

For `CC1(C)O[C@@H]2C[C@H]3[C@@H]4C[C@H](F)C5=CC(=O)C=C[C@]5(C)[C@H]4[C@@H](O)C[C@]3(C)[C@]2(C(=O)CO)O1` [Flunisolide], which CC50 at 24 h is on record?
The CC50 at 24 h was greater than 20 µM.

For `CC(C)=CCC/C(C)=C/COC=O` [(2E)-3,7-Dimethylocta-2,6-dien-1-yl formate], which CC50 at 24 h is on record?
The CC50 at 24 h was greater than 90 µM.

With `c1ccc2cnncc2c1` [Phthalazine] as the compound, how does the CC50 at 24 h read?
Its CC50 at 24 h is greater than 90 µM.

Which CC50 at 24 h does the source give for `CNc1ccccc1` [N-Methylaniline] here?
Its CC50 at 24 h is greater than 90 µM.

Which CC50 at 24 h does the source give for `CC(=O)N[C@@H]([C@@H](O)[C@H](O)[C@H](O)CO)[C@@H](O)CC(=O)C(=O)O` [Aceneuramic acid] here?
Its CC50 at 24 h is greater than 50 µM.

For `CN(CC(=O)N1CCOCC1)Cc1c(Cl)cccc1NC(=O)c1ccccc1` [Fominoben hydrochloride], which CC50 at 24 h is on record?
The CC50 at 24 h was greater than 50 µM.

Which CC50 at 24 h does the source give for `CCC(C)(O)CCC=C(C)C` (stereo not drawn) [3,7-Dimethyloct-6-en-3-ol] here?
Its CC50 at 24 h is greater than 90 µM.

Which CC50 at 24 h does the source give for `C[C@H]1[C@@H](c2ccccc2)NC(=O)N1C` [(4R,5S)-(-)-1,5-Dimethyl-4-phenyl-2-imidazolidinone] here?
The CC50 at 24 h was greater than 90 µM.

With `Cc1cc(Cl)ccc1N` [4-Chloro-2-methylaniline hydrochloride] as the compound, how does the CC50 at 24 h read?
Its CC50 at 24 h is greater than 90 µM.

For `CCC(C=O)CC` [2-Ethylbutyraldehyde], which CC50 at 24 h is on record?
The CC50 at 24 h was greater than 90 µM.

With `O=C(O)c1cccc(C(=O)O)n1` [2,6-Pyridinedicarboxylic acid] as the compound, how does the CC50 at 24 h read?
The CC50 at 24 h was greater than 90 µM.

For `O=C(CCN1CCN(CCO)CC1)N1c2ccccc2Sc2ccc(C(F)(F)F)cc21` [Ftorpropazine], which CC50 at 24 h is on record?
Its CC50 at 24 h is 16.3 µM.

With `CCC(C)Nc1ccc(NC(C)CC)cc1` (stereo not drawn) [N,N'-Bis(1-methylpropyl)-1,4-benzenediamine] as the compound, how does the CC50 at 24 h read?
The CC50 at 24 h was 14 µM.

With `CCCC(c1cc(C(C)(C)C)c(O)cc1C)c1cc(C(C)(C)C)c(O)cc1C` [4,4'-Butane-1,1-diylbis(2-tert-butyl-5-methylphenol)] as the compound, how does the CC50 at 24 h read?
The CC50 at 24 h was 3.97 µM.

Which CC50 at 24 h does the source give for `CC(C)(O)C#CC(C)(C)O` [2,5-Dimethyl-3-hexyne-2,5-diol] here?
The CC50 at 24 h was greater than 90 µM.

Which CC50 at 24 h does the source give for `Cc1cc(C)c(C)c(C)c1` [1,2,3,5-Tetramethylbenzene] here?
The CC50 at 24 h was greater than 90 µM.

With `COC(=O)c1sccc1S(N)(=O)=O` [Methyl 3-sulfamoylthiophene-2-carboxylate] as the compound, how does the CC50 at 24 h read?
The CC50 at 24 h was greater than 90 µM.

Which CC50 at 24 h does the source give for `O=C(O)COc1nc(Cl)c(Cl)cc1Cl` [Triclopyr] here?
The CC50 at 24 h was greater than 90 µM.

With `O=C(c1ccccc1O)c1ccccc1O` [2,2'-Dihydroxybenzophenone] as the compound, how does the CC50 at 24 h read?
Its CC50 at 24 h is greater than 90 µM.

For `CC1=CC[C@H](CC=O)C1(C)C` [[(1R)-2,2,3-Trimethylcyclopent-3-en-1-yl]acetaldehyde], which CC50 at 24 h is on record?
The CC50 at 24 h was greater than 90 µM.

For `N[C@@H](Cc1cc(I)c(Oc2cc(I)c(O)c(I)c2)c(I)c1)C(=O)O` [Levothyroxine], which CC50 at 24 h is on record?
Its CC50 at 24 h is greater than 60 µM.

For `COc1ccc(COC(C)=O)cc1` [4-Methoxybenzyl acetate], which CC50 at 24 h is on record?
Its CC50 at 24 h is greater than 80 µM.

For `CN1CCC(=C2c3ccccc3Sc3ccccc32)CC1` [Pimethixene maleate], which CC50 at 24 h is on record?
Its CC50 at 24 h is 4.52 µM.

For `CCCCCCCCCCCCC1CO1` (stereo not drawn) [1,2-Epoxytetradecane], which CC50 at 24 h is on record?
The CC50 at 24 h was greater than 90 µM.

Which CC50 at 24 h does the source give for `CCCCCCCCCCC1CO1` (stereo not drawn) [1,2-Epoxydodecane] here?
Its CC50 at 24 h is greater than 90 µM.

With `CCN1CCN(c2cc(-c3ccc(F)cc3)c3c(n2)CCCCCC3)CC1` [Blonanserin] as the compound, how does the CC50 at 24 h read?
Its CC50 at 24 h is 20.1 µM.

Which CC50 at 24 h does the source give for `Cc1ccc(C#N)cc1` [4-Methylbenzonitrile] here?
Its CC50 at 24 h is greater than 90 µM.

Same assay, conditions: rat, gh3-tre-luc cells, AC50 (uM) modified / 1000, Tox21_110001=Tox21_200573; viability, 1 nM T3 present, 24 h

For `CC(C)(C#N)C(C)(C)C#N` [Tetramethylsuccinonitrile], which CC50 at 24 h is on record?
The CC50 at 24 h was greater than 90 µM.

Same assay, conditions: rat, gh3-tre-luc cells, AC50 (uM) modified / 1000, Tox21_110001=Tox21_201109; viability, 1 nM T3 present, 24 h

With `ClCC(Cl)(Cl)Cl` [1,1,1,2-Tetrachloroethane] as the compound, how does the CC50 at 24 h read?
Its CC50 at 24 h is greater than 100 µM.

Same assay, conditions: rat, gh3-tre-luc cells, AC50 (uM) modified / 1000, Tox21_110001=Tox21_201906; viability, 1 nM T3 present, 24 h

With `Nc1ccc(-c2ccc(N)c(Cl)c2)cc1Cl` [3,3'-Dichlorobenzidine dihydrochloride] as the compound, how does the CC50 at 24 h read?
The CC50 at 24 h was 76.5 µM.

Same assay, conditions: rat, gh3-tre-luc cells, AC50 (uM) modified / 1000, Tox21_110001=Tox21_301059; viability, 1 nM T3 present, 24 h

With `CCOP(=O)(SC(C)CC)N1CCSC1=O` (stereo not drawn) [Fosthiazate] as the compound, how does the CC50 at 24 h read?
The CC50 at 24 h was greater than 90 µM.

Same assay, conditions: rat, gh3-tre-luc cells, AC50 (uM) modified / 1000, Tox21_110001=Tox21_302509; viability, 1 nM T3 present, 24 h

Which CC50 at 24 h does the source give for `NC(=O)O` [Ammonium carbamate] here?
Its CC50 at 24 h is greater than 90 µM.

Same assay, conditions: rat, gh3-tre-luc cells, AC50 (uM) modified / 1000, Tox21_110001=Tox21_302894; viability, 1 nM T3 present, 24 h

Which CC50 at 24 h does the source give for `Nc1ccc(-c2ccc(N)c(Cl)c2)cc1Cl` [3,3'-Dichlorobenzidine dihydrochloride] here?
Its CC50 at 24 h is 20.3 µM.

Same assay, conditions: rat, gh3-tre-luc cells, AC50 (uM) modified / 1000, Tox21_110001=Tox21_400021; viability, 1 nM T3 present, 24 h

With `Nc1c(Cl)c(Cl)c(Cl)c(Cl)c1Cl` [Pentachloroaniline] as the compound, how does the CC50 at 24 h read?
The CC50 at 24 h was greater than 90 µM.
